Experimental data from patent US20130317029A1 (PORTOLA PHARMACEUTICALS, INC., priority 2010, published 2013).
pIC50: −log10 of the molar value.

These molecules were tested against T1, full length active recombinant SYK enzyme (Homo sapiens, UniProt P43405) (assay: Inhibition of Syk tyrosine phosphorylation activity (LANCE TR-FRET kinase assay)).
T1 construct: full length active recombinant SYK enzyme (Millipore, Calif.); purchased Millipore
Format: biochemical
Source text: This example illustrates methods for evaluating the compounds of the invention, along with results obtained for such assays. The in vitro and in vivo human Syk activities of the inventive compounds can be determined by various procedures known in the art, such as a test for their ability to inhibit the activity of human plasma Syk. […] The IC50 value is the concentration (in nM) of the compound required to provide 50% inhibition of human Syk proteolytic activity.
Potency of candidate molecules for inhibiting Syk tyrosine phosphorylation activity is assessed by measuring the ability of a test compound to inhibit Syk-mediated tyrosine phosphorylation of a Syk-specific substrate.
SYK tyrosine phosphorylation activity is measured using the LANCE™ Technology developed by Perkin Elmer Life and Analytical Sciences (Boston, Mass.). LANCE™ refers to homogeneous time resolved fluorometry applications using techniques such as time-resolved fluorescence resonance energy transfer assay (TR-FRET) (see generally for procedures in Perkin Elmer Application Note—How to Optimize a Tyrosine Kinase Assay Using Time Resolved Fluorescence-Based LANCE Detection, wwww.perkinelmer.com/lifesciences). The assay principle involves detection of a phosphorylated substrate using energy transfer from a phosphospecific europium-labeled antibody to streptavidin-allophycocyanin as an acceptor.
To test the ability of candidate molecules to inhibit SYK tyrosine phosphorylation activity, molecules are reconstituted in 30% DMSO and serially diluted 1:3 with the final dilution containing DMSO in the absence of the candidate molecule. The final DMSO concentration in the assay is 3%. Kinase assays are performed as a two part reaction. The first reaction is a kinase reaction and which comprises of a candidate molecule, full length active recombinant SYK enzyme (Millipore, Calif.) and biotin-labeled SYK-specific substrate biotin-[…]-OH. The second reaction involves termination of the kinase reaction and the simultaneous addition of the detection reagents-europium-labeled anti-phosphotyrosine reagent (Eu-W1024-PY100, Perkin Elmer, Boston, Mass.) and Streptavidin-Allophycocyanin detection reagent (SA-APC, Prozyme, Calif.). The kinase reaction is performed in a black U-bottom 96-well microtitre plate. The final reaction volume is 50 μL and contains a final concentration of 1 nM active SYK enzyme, 550 nM SYK-substrate, and 100 μM ATP diluted in a buffer containing 50 mM Tris pH 7.5, 5 mM MgCl2, and 1 mM DTT. The reaction is allowed to proceed for 1 hour at room temperature. The quench buffer contains 100 mM Tris pH 7.5, 300 mM NaCl2, 20 mM EDTA, 0.02% Brij35, and 0.5% BSA. The detection reagents are added to the reaction mixture at the following dilutions-1:500 for Eu-W1024-PY100 and 1:250 for SA-APC. The kinase reaction is terminated by the addition of 50 μL quench buffer containing the detection reagents. The detection is allowed to proceed for 1 hr at room temperature. Detection of the phosphorlated substrate in the absence and presence of inhibitors is measured in the TR-FRET instrument, Analyst HT (Molecular Probes, Sunnyvale, Calif.) and the condition for measurements are set up using CriterionHost Release 2.0 (Molecular Probes, Sunnyvale, Calif.). The settings used are a follows: excitation 360 nm, emission 665-7.5 nm, beam splitter 350 nm 50/50, flash 100 pulses, delay 60 us, integration 400 us, z-height 2 mm. Inhibition of SYK-tyrosine kinase activity is calculated as the maximum response observed in the presence of inhibitor, compared to that in the absence of inhibitor. IC50s were derived by non-linear regression analysis.

SMILES | pIC50
CC(=O)N1CCN(c2ccc(Nc3nc(NC4CCC4)c(C(N)=O)c(=O)[nH]3)cc2)CC1 [Example 47, 2-(4-(4-acetylpiperazin-1-yl)phenylamino)-4-(cyclobutylamino)-6-oxo-1,6-dihydropyrimidine-5-carboxamide] | < 6.00
NC(=O)c1c(O)nc(NC2CCCCC2N)nc1NC1CC1 (centres unmarked) [Example 48, 2-(2-aminocyclohexylamino)-4-(cyclopropylamino)-6-hydroxypyrimidine-5-carboxamide] | < 6.00
Cc1cc(C)cc(Nc2nc(NCC(N)=O)[nH]c(=O)c2C(N)=O)c1 [Example 49, 2-(2-amino-2-oxoethylamino)-4-(3,5-dimethylphenylamino)-6-oxo-1,6-dihydropyrimidine-5-carboxamide] | 7.00 to 8.00
COc1nc(NCC(N)=O)nc(Nc2cc(C)cc(C)c2)c1C(N)=O [Example 50, 2-(2-amino-2-oxoethylamino)-4-(3,5-dimethylphenylamino)-6-methoxypyrimidine-5-carboxamide] | 6.00 to 7.00
C[C@H](N)CNc1nc(Nc2ccc3ncccc3c2)c(C(N)=O)c(=O)[nH]1 [Example 51, (S)-2-(2-aminopropylamino)-6-oxo-4-(quinolin-6-ylamino)-1,6-dihydropyrimidine-5-carboxamide] | 8.00 to 9.00
CCNc1nc(Nc2cccc(C)c2)c(C(N)=O)c(OCCCN)n1 [Example 52, 4-(m-toluidino)-6-(3-aminopropoxy)-2-(ethylamino)pyrimidine-5-carboxamide] | < 6.00
Cc1cccc(Nc2nc(NC[C@H](C)N)nc(OCCO)c2C(N)=O)c1 [Example 53, (S)-4-(m-toluidino)-2-(2-aminopropylamino)-6-(2-hydroxyethoxy)pyrimidine-5-carboxamide] | < 6.00
Cc1cc(C)cc(Nc2nc(NC[C@H](C)N)[nH]c(=O)c2C(N)=O)c1 [Example 54, (S)-2-(2-aminopropylamino)-4-(3,5-dimethylphenylamino)-6-oxo-1,6-dihydropyrimidine-5-carboxamide] | < 6.00
Cc1cc(C)cc(Nc2nc(N[C@H](CC(C)C)C(N)=O)[nH]c(=O)c2C(N)=O)c1 [Example 55, (R)-2-(1-amino-4-methyl-1-oxopentan-2-ylamino)-4-(3,5-dimethylphenylamino)-6-oxo-1,6-dihydropyrimidine-5-carboxamide] | < 6.00
Cc1cc(C)cc(Nc2nc(N[C@H](C)C(N)=O)[nH]c(=O)c2C(N)=O)c1 [Example 56, (R)-2-(1-amino-1-oxopropan-2-ylamino)-4-(3,5-dimethylphenylamino)-6-oxo-1,6-dihydropyrimidine-5-carboxamide] | < 6.00
Cc1cc(C)cc(Nc2nc(NC3CCCCC3N)[nH]c(=O)c2C(N)=O)c1 (centres unmarked) [Example 57, 2-(2-aminocyclohexylamino)-4-(3,5-dimethylphenylamino)-6-oxo-1,6-dihydropyrimidine-5-carboxamide] | 6.00 to 7.00
CC(=O)N(C)c1ccc(Nc2nc(NC3CC3)c(C(N)=O)c(=O)[nH]2)cc1 [Example 58, 4-(cyclopropylamino)-2-(4-(N-methylacetamido)phenylamino)-6-oxo-1,6-dihydropyrimidine-5-carboxamide] | < 6.00
CC(=O)N1CCN(c2ccc(Nc3nc(Nc4cc(C)cc(C)c4)c(C(N)=O)c(=O)[nH]3)cc2)CC1 [Example 59, 2-(4-(4-acetylpiperazin-1-yl)phenylamino)-4-(3,5-dimethylphenylamino)-6-oxo-1,6-dihydropyrimidine-5-carboxamide] | < 6.00
Cc1cc(C)cc(Nc2nc(NC3CC3)[nH]c(=O)c2C(N)=O)c1 [Example 60, 2-(cyclopropylamino)-4-(3,5-dimethylphenylamino)-6-oxo-1,6-dihydropyrimidine-5-carboxamide] | < 6.00
Cc1cc(C)cc(Nc2nc(Nc3ccc(S(N)(=O)=O)cc3)[nH]c(=O)c2C(N)=O)c1 [Example 61, 4-(4-(3,5-dimethylphenylamino)-5-carboxamide-6-oxo-1,6-dihydropyrimidin-2-ylamino)benzenesulfonamide] | 6.00 to 7.00
CC(=O)N1CCN(c2ccc(Nc3nc(NC4CC4)c(C(N)=O)c(=O)[nH]3)cc2)CC1 [Example 62, 2-(4-(4-acetylpiperazin-1-yl)phenylamino)-4-(cyclopropylamino)-6-oxo-1,6-dihydropyrimidine-5-carboxamide] | < 6.00
Cc1cccc(Nc2nc(Nc3ccc(S(N)(=O)=O)cc3)nc(O)c2C(N)=O)c1 [Example 63, 4-(4-(3-methylphenylamino)-5-carboxamide-6-oxo-1,6-dihydropyrimidin-2-ylamino)benzenesulfonamide] | 6.00 to 7.00
CC(=O)N1CCN(c2ccc(Nc3nc(O)c(C(N)=O)c(Nc4cccc(C)c4)n3)cc2)CC1 [Example 64, 4-(m-toluidino)-2-(4-(4-acetylpiperazin-1-yl)phenylamino)-6-hydroxypyrimidine-5-carboxamide] | < 6.00
COc1nc(NC2CCCCC2N)nc(Nc2cc(C)cc(C)c2)c1C(N)=O (centres unmarked) [Example 65, 2-(2-aminocyclohexylamino)-4-(3,5-dimethylphenylamino)-6-methoxypyrimidine-5-carboxamide] | 7.00 to 8.00
COc1nc(N[C@H](C)C(N)=O)nc(Nc2cc(C)cc(C)c2)c1C(N)=O [Example 66, (R)-2-(1-amino-1-oxopropan-2-ylamino)-4-(3,5-dimethylphenylamino)-6-methoxypyrimidine-5-carboxamide] | 6.00 to 7.00
COc1nc(N[C@H](CC(C)C)C(N)=O)nc(Nc2cc(C)cc(C)c2)c1C(N)=O [Example 67, (R)-2-(1-amino-4-methyl-1-oxopentan-2-ylamino)-4-(3,5-dimethylphenylamino)-6-methoxypyrimidine-5-carboxamide] | 6.00 to 7.00
COc1nc(NC[C@H](C)N)nc(Nc2cc(C)cc(C)c2)c1C(N)=O [Example 68, (S)-2-(2-aminopropylamino)-4-(3,5-dimethylphenylamino)-6-methoxypyrimidine-5-carboxamide] | 6.00 to 7.00
COc1nc(Nc2ccc(N3CCN(C(C)=O)CC3)cc2)nc(NC2CC2)c1C(N)=O [Example 69, 2-(4-(4-acetylpiperazin-1-yl)phenylamino)-4-(cyclopropylamino)-6-methoxypyrimidine-5-carboxamide] | < 6.00
COc1nc(Nc2ccc(N3CCOCC3)cc2)nc(Nc2cccc(C)c2)c1C(N)=O [Example 70, 4-(m-toluidino)-6-methoxy-2-(4-morpholinophenylamino)pyrimidine-5-carboxamide] | < 6.00
COc1nc(N[C@@H](C(N)=O)c2ccccc2)nc(Nc2cccc(C)c2)c1C(N)=O [Example 71, (R)-4-(m-toluidino)-2-(2-amino-2-oxo-1-phenylethylamino)-6-methoxypyrimidine-5-carboxamide] | 6.00 to 7.00
COc1nc(N[C@@H](C(N)=O)c2ccccc2)nc(Nc2cc(C)cc(C)c2)c1C(N)=O [Example 72, (R)-2-(2-amino-2-oxo-1-phenylethylamino)-4-(3,5-dimethylphenylamino)-6-methoxypyrimidine-5-carboxamide] | 6.00 to 7.00
COc1nc(Nc2ccc(N3CCOCC3)cc2)nc(NC2CC2)c1C(N)=O [Example 73, 4-(cyclopropylamino)-6-methoxy-2-(4-morpholinophenylamino)pyrimidine-5-carboxamide] | < 6.00
COc1nc(Nc2ccc(N3CCN(C(C)=O)CC3)cc2)nc(Nc2cccc(C)c2)c1C(N)=O [Example 74, 4-(m-toluidino)-2-(4-(4-acetylpiperazin-1-yl)phenylamino)-6-methoxypyrimidine-5-carboxamide] | < 6.00
CCNc1nc(Nc2cccc(C)c2)c(C(N)=O)c(OCCO)n1 [Example 75, 4-(m-toluidino)-2-(ethylamino)-6-(2-hydroxyethoxy)pyrimidine-5-carboxamide] | < 6.00
